Test results taken from ChEMBL document CHEMBL1255329, “Effect of polysorbate 80 on oritavancin binding to plastic surfaces: implications for susceptibility testing” (2008).

Columns and labels:
Format in all cases: functional
Enterococcus faecalis [1] = test: Antibacterial activity against Enterococcus faecalis ATCC 29212 in CAMHB medium by broth microdilution method in absence of 0.002% polysorbate 80
Enterococcus faecalis [2] = test: Antibacterial activity against Enterococcus faecalis ATCC 29212 in CAMHB medium containing 2% LHB by broth microdilution method in presence of 0.002% polysorbate 80
Enterococcus faecalis [3] = test: Antibacterial activity against Enterococcus faecalis ATCC 29212 in CAMHB medium containing 2% LHB by broth microdilution method in absence of 0.002% polysorbate 80
Streptococcus pneumoniae [4] = test: Antibacterial activity against Streptococcus pneumoniae ATCC 49619 in CAMHB medium containing 2% LHB by broth microdilution method in presence of 0.002% polysorbate 80
Streptococcus pneumoniae [5] = test: Antibacterial activity against Streptococcus pneumoniae ATCC 49619 in CAMHB medium containing 2% LHB by broth microdilution method in absence of 0.002% polysorbate 80
Streptococcus pneumoniae [6] = test: Antibacterial activity against Streptococcus pneumoniae ATCC 49619 in BHI broth by broth microdilution method in presence of 0.002% polysorbate 80
Streptococcus pneumoniae [7] = test: Antibacterial activity against Streptococcus pneumoniae ATCC 49619 in BHI broth by broth microdilution method in absence of 0.002% polysorbate 80
Streptococcus pneumoniae [8] = test: Antibacterial activity against Streptococcus pneumoniae ATCC 49619 in BHI broth containing 2% LHB by broth microdilution method in presence of 0.002% polysorbate 80
Streptococcus pneumoniae [9] = test: Antibacterial activity against Streptococcus pneumoniae ATCC 49619 in BHI broth containing 2% LHB by broth microdilution method in absence of 0.002% polysorbate 80
Enterococcus faecalis [10] = test: Antibacterial activity against Enterococcus faecalis clinical isolate by broth microdilution method in presence of 0.002% polysorbate 80
Enterococcus faecalis [11] = test: Antibacterial activity against Enterococcus faecalis clinical isolate by broth microdilution method
Enterococcus faecium [12] = test: Antibacterial activity against Enterococcus faecium clinical isolate by broth microdilution method in presence of 0.002% polysorbate 80
Enterococcus faecium [13] = test: Antibacterial activity against Enterococcus faecium clinical isolate by broth microdilution method
Staphylococcus aureus [14] = test: Antibacterial activity against Staphylococcus aureus clinical isolate by broth microdilution method in presence of 0.002% polysorbate 80
Staphylococcus aureus [15] = test: Antibacterial activity against Staphylococcus aureus clinical isolate by broth microdilution method
Staphylococcus [16] = test: Antibacterial activity against coagulase-negative Staphylococcus clinical isolate by broth microdilution method in presence of 0.002% polysorbate 80
Staphylococcus [17] = test: Antibacterial activity against coagulase-negative Staphylococcus clinical isolate by broth microdilution method
Streptococcus agalactiae [18] = test: Antibacterial activity against Streptococcus agalactiae clinical isolate using 2% LHB by broth microdilution method in presence of 0.002% polysorbate 80
Streptococcus agalactiae [19] = test: Antibacterial activity against Streptococcus agalactiae clinical isolate using 2% LHB by broth microdilution method
Streptococcus pneumoniae [20] = test: Antibacterial activity against Streptococcus pneumoniae clinical isolate by broth microdilution method in presence of 0.002% polysorbate 80
Streptococcus pneumoniae [21] = test: Antibacterial activity against Streptococcus pneumoniae clinical isolate by broth microdilution method
Streptococcus pyogenes [22] = test: Antibacterial activity against Streptococcus pyogenes clinical isolate by broth microdilution method in presence of 0.002% polysorbate 80
Streptococcus pyogenes [23] = test: Antibacterial activity against Streptococcus pyogenes clinical isolate by broth microdilution method
Streptococcus viridans [24] = test: Antibacterial activity against Streptococcus viridans group clinical isolate by broth microdilution method in presence of 0.002% polysorbate 80
Streptococcus viridans [25] = test: Antibacterial activity against Streptococcus viridans group clinical isolate by broth microdilution method
[26] = Antibacterial activity against Streptococcus Group C clinical isolate by broth microdilution method in presence of 0.002% polysorbate 80; conditions: Streptococcus sp. 'group C'
[27] = Antibacterial activity against Streptococcus Group G clinical isolate by broth microdilution method in presence of 0.002% polysorbate 80; conditions: Streptococcus sp. 'group G'
[28] = Antibacterial activity against Streptococcus Group C clinical isolate by broth microdilution method; conditions: Streptococcus sp. 'group C'
[29] = Antibacterial activity against Streptococcus Group G clinical isolate by broth microdilution method; conditions: Streptococcus sp. 'group G'
Enterococcus faecalis [30] = test: Ratio of MIC for Enterococcus faecalis clinical isolate to MIC for Enterococcus faecalis clinical isolate in presence of 0.002% polysorbate 80
Enterococcus faecium [31] = test: Ratio of MIC for Enterococcus faecium clinical isolate to MIC for Enterococcus faecium clinical isolate in presence of 0.002% polysorbate 80
Staphylococcus aureus [32] = test: Ratio of MIC for Staphylococcus aureus clinical isolate to MIC for Staphylococcus aureus clinical isolate in presence of 0.002% polysorbate 80
Staphylococcus [33] = test: Ratio of MIC for coagulase-negative Staphylococcus clinical isolate to MIC for coagulase-negative Staphylococcus clinical isolate in presence of 0.002% polysorbate 80
Streptococcus agalactiae [34] = test: Ratio of MIC for Streptococcus agalactiae clinical isolate to MIC for Streptococcus agalactiae clinical isolate in presence of 0.002% polysorbate 80
Streptococcus pneumoniae [35] = test: Ratio of MIC for Streptococcus pneumoniae clinical isolate to MIC for Streptococcus pneumoniae clinical isolate in presence of 0.002% polysorbate 80
Streptococcus pyogenes [36] = test: Ratio of MIC for Streptococcus pyogenes clinical isolate to MIC for Streptococcus pyogenes clinical isolate in presence of 0.002% polysorbate 80
Streptococcus viridans [37] = test: Ratio of MIC for Streptococcus viridans group clinical isolate to MIC for Streptococcus viridans group clinical isolate in presence of 0.002% polysorbate 80
Staphylococcus aureus [38] = test: Antibacterial activity against Staphylococcus aureus ATCC 29213 in CAMHB medium by broth microdilution method in presence of 0.002% polysorbate 80
Staphylococcus aureus [39] = test: Antibacterial activity against Staphylococcus aureus ATCC 29213 in CAMHB medium by broth microdilution method in absence of 0.002% polysorbate 80
Staphylococcus aureus [40] = test: Antibacterial activity against Staphylococcus aureus ATCC 29213 in CAMHB medium containing 2% LHB by broth microdilution method in presence of 0.002% polysorbate 80
Staphylococcus aureus [41] = test: Antibacterial activity against Staphylococcus aureus ATCC 29213 in CAMHB medium containing 2% LHB by broth microdilution method in absence of 0.002% polysorbate 80
Enterococcus faecalis [42] = test: Antibacterial activity against Enterococcus faecalis ATCC 29212 in CAMHB medium by broth microdilution method in presence of 0.002% polysorbate 80
Staphylococcus aureus [43] = test: Antibacterial activity against Staphylococcus aureus ATCC 29213 assessed as reduction in compound MIC by broth microdilution method in presence of 0.002% polysorbate 80 in solvent
Staphylococcus aureus [44] = test: Antibacterial activity against Staphylococcus aureus ATCC 29213 assessed as reduction in compound MIC by broth microdilution method in presence of 0.002% polysorbate 80 in inoculum

CC(=O)N[C@@H]1[C@H](Oc2c3cc4cc2Oc2ccc(cc2Cl)[C@@H](O[C@@H]2O[C@@H](CO)[C@@H](O)[C@H](O)[C@@H]2NC(C)=O)[C@@H]2NC(=O)[C@H](NC(=O)[C@@H]4NC(=O)[C@H]4NC(=O)[C@@H](Cc5ccc(c(Cl)c5)O3)NC(=O)[C@H](N)c3ccc(O)c(c3)Oc3cc(O)cc4c3)c3ccc(O)c(c3)-c3c(O[C@H]4O[C@H](CO)[C@@H](O)[C@@H](O)[C@@H]4O)cc(O)cc3[C@@H](C(=O)O)NC2=O)O[C@@H](CO)[C@@H](O)[C@@H]1O
2: Ratio (Streptococcus pyogenes [36])
0.5: Ratio (Enterococcus faecium [31]) | Ratio (Streptococcus viridans [37])
0.12 µg/mL: MIC90 (Enterococcus faecalis [10]) | MIC90 (Streptococcus viridans [24]) | MIC90 (Streptococcus viridans [25])
0.5 µg/mL: MIC (Enterococcus faecalis [1]) | MIC (Enterococcus faecalis [2]) | MIC90 (Enterococcus faecalis [11]) | MIC90 (Staphylococcus aureus [14]) | MIC90 (Staphylococcus aureus [15]) | MIC (Staphylococcus aureus [38]) | MIC (Staphylococcus aureus [39]) | MIC (Staphylococcus aureus [40]) | MIC (Enterococcus faecalis [42])
0.06 µg/mL: MIC90 (Streptococcus agalactiae [18]) | MIC90 (Streptococcus agalactiae [19]) | MIC (Streptococcus pneumoniae [20]) | MIC90 (Streptococcus pneumoniae [20]) | MIC (Streptococcus pneumoniae [21]) | MIC90 (Streptococcus pneumoniae [21]) | MIC90 (Streptococcus pyogenes [23])
128 µg/mL: MIC90 (Enterococcus faecium [12])
4: Ratio (Enterococcus faecalis [30])
64 µg/mL: MIC90 (Enterococcus faecium [13])
0.03 µg/mL: MIC (Streptococcus pneumoniae [4]) | MIC (Streptococcus pneumoniae [5]) | MIC (Streptococcus pneumoniae [6]) | MIC (Streptococcus pneumoniae [7]) | MIC (Streptococcus pneumoniae [8]) | MIC (Streptococcus pneumoniae [9]) | MIC90 (Streptococcus pyogenes [22]) | MIC [26] | MIC [27] | MIC [28] | MIC [29]
1 µg/mL: MIC (Enterococcus faecalis [3]) | MIC (Staphylococcus aureus [41])
1: Ratio (Staphylococcus aureus [32]) | Ratio (Staphylococcus [33]) | Ratio (Streptococcus agalactiae [34]) | Ratio (Streptococcus pneumoniae [35])
2 µg/mL: MIC90 (Staphylococcus [16]) | MIC90 (Staphylococcus [17])

O=C(O)c1cn(C2CC2)c2cc(N3CCNCC3)c(F)cc2c1=O [CIPROFLOXACIN]
1 µg/mL: MIC (Streptococcus pneumoniae [4]) | MIC (Streptococcus pneumoniae [8])
0.5 µg/mL: MIC (Enterococcus faecalis [1]) | MIC (Enterococcus faecalis [2]) | MIC (Enterococcus faecalis [3]) | MIC (Staphylococcus aureus [38]) | MIC (Staphylococcus aureus [39]) | MIC (Staphylococcus aureus [40]) | MIC (Staphylococcus aureus [41]) | MIC (Enterococcus faecalis [42])

CN[C@H](CC(C)C)C(=O)N[C@H]1C(=O)N[C@@H](CC(N)=O)C(=O)N[C@H]2C(=O)N[C@H]3C(=O)N[C@H](C(=O)N[C@H](C(=O)O)c4cc(O)cc(O)c4-c4cc3ccc4O)[C@H](O[C@H]3C[C@](C)(N)[C@@H](O)[C@H](C)O3)c3ccc(c(Cl)c3)Oc3cc2cc(c3O[C@@H]2O[C@H](CO)[C@@H](O)[C@H](O)[C@H]2O[C@H]2C[C@](C)(NCc3ccc(-c4ccc(Cl)cc4)cc3)[C@@H](O)[C@H](C)O2)Oc2ccc(cc2Cl)[C@H]1O [ORITAVANCIN]
32: Ratio (Staphylococcus aureus [32])
0.5 µg/mL: MIC (Enterococcus faecalis [1])
0.008 µg/mL: MIC (Streptococcus pneumoniae [7])
0.002 µg/mL: MIC (Streptococcus pneumoniae [4])
0.016 µg/mL: MIC (Enterococcus faecalis [3])
1 µg/mL: MIC90 (Streptococcus agalactiae [19]) | MIC90 (Streptococcus viridans [24]) | MIC90 (Streptococcus viridans [25]) | MIC (Staphylococcus aureus [39])
16: fold change (FC) (Staphylococcus aureus [43]) | Ratio (Enterococcus faecalis [30]) | Ratio (Enterococcus faecium [31]) | Ratio (Staphylococcus [33])
0.001 µg/mL: MIC (Streptococcus pneumoniae [5]) | MIC (Streptococcus pneumoniae [6]) | MIC (Streptococcus pneumoniae [8]) | MIC (Streptococcus pneumoniae [9])
2 µg/mL: MIC90 (Enterococcus faecalis [11])
0.03 µg/mL: MIC (Enterococcus faecalis [2]) | MIC (Staphylococcus aureus [38]) | MIC (Staphylococcus aureus [40]) | MIC (Staphylococcus aureus [41]) | MIC (Enterococcus faecalis [42])
1: Ratio (Streptococcus pneumoniae [35]) | Ratio (Streptococcus pyogenes [36]) | Ratio (Streptococcus viridans [37])
0.004 µg/mL: MIC90 (Streptococcus pneumoniae [20]) | MIC90 (Streptococcus pneumoniae [21]) | MIC [26] | MIC [27] | MIC [28] | MIC [29]
0.12 µg/mL: MIC90 (Enterococcus faecalis [10]) | MIC90 (Staphylococcus aureus [14])
0.25 µg/mL: MIC90 (Enterococcus faecium [12]) | MIC90 (Staphylococcus [16]) | MIC90 (Streptococcus agalactiae [18]) | MIC90 (Streptococcus pyogenes [22]) | MIC90 (Streptococcus pyogenes [23])
4: fold change (FC) (Staphylococcus aureus [44])
4 µg/mL: MIC90 (Enterococcus faecium [13]) | MIC90 (Staphylococcus aureus [15]) | MIC90 (Staphylococcus [17])

CN[C@H](CC(C)C)C(=O)N[C@H]1C(=O)N[C@@H](CC(N)=O)C(=O)N[C@H]2C(=O)N[C@H]3C(=O)N[C@H](C(=O)N[C@H](C(=O)O)c4cc(O)cc(O)c4-c4cc3ccc4O)[C@H](O)c3ccc(c(Cl)c3)Oc3cc2cc(c3O[C@@H]2O[C@H](CO)[C@@H](O)[C@H](O)[C@H]2O[C@H]2C[C@](C)(N)[C@H](O)[C@H](C)O2)Oc2ccc(cc2Cl)[C@H]1O [VANCOMYCIN]
> 256 µg/mL: MIC90 (Enterococcus faecium [12]) | MIC90 (Enterococcus faecium [13])
0.5 µg/mL: MIC90 (Streptococcus agalactiae [18]) | MIC90 (Streptococcus agalactiae [19]) | MIC90 (Streptococcus viridans [24]) | MIC90 (Streptococcus viridans [25])
1 µg/mL: MIC90 (Staphylococcus aureus [14]) | MIC90 (Staphylococcus aureus [15]) | MIC90 (Staphylococcus [17])
0.12 µg/mL: MIC [26] | MIC [28]
2 µg/mL: MIC (Enterococcus faecalis [3]) | MIC90 (Enterococcus faecalis [10]) | MIC90 (Enterococcus faecalis [11]) | MIC90 (Staphylococcus [16])
0.25 µg/mL: MIC (Streptococcus pneumoniae [4]) | MIC (Streptococcus pneumoniae [5]) | MIC (Streptococcus pneumoniae [6]) | MIC (Streptococcus pneumoniae [7]) | MIC (Streptococcus pneumoniae [8]) | MIC (Streptococcus pneumoniae [9]) | MIC90 (Streptococcus pneumoniae [20]) | MIC90 (Streptococcus pneumoniae [21]) | MIC (Streptococcus pyogenes [22]) | MIC90 (Streptococcus pyogenes [22]) | MIC (Streptococcus pyogenes [23]) | MIC90 (Streptococcus pyogenes [23]) | MIC [27] | MIC [29]
